Patent US12071435B2, “TLR8 agonist” (CHIA TAI TIANQING PHARMACEUTICAL GROUP CO., LTD., priority 2018, dated 2024)

Key:
Assay type in all cases: cell-based
Human TLR8 = Human TLR8 (Homo sapiens (Human), UniProt Q9NR97); assay: HEK-Blue hTLR8 SEAP reporter gene assay (agonistic activity); settings: HEK-Blue hTLR8 cells, 24 h incubation, SEAP by QUANTI-Blue OD650
Description: (§1) The HEK-Blue™ hTLR7 (catalog No.: hkb-ht1r7) and HEK-Blue™ hTLR8 (catalog No.: hkb-ht1r8) cell lines used in this experiment were purchased from InvivoGen. The two cell lines were constructed by a human embryonic kidney 293 cell line stably co-transfecting hTLR7 or hTLR8 and inducing expression of Secreted Alkaline Phosphatase (SEAP) reporter gene, wherein SEAP reporter gene was regulated by an IFN-β promoter. The promoter was fused with NF-κB and AP-1 binding sites. hTLR7 or hTLR8 agonist can activate NF-κB and AP-1 and induce the expression and secretion of SEAP. The agonistic activity of compound for hTLR7 and hTLR8 receptors was identified by measuring the expression level of SEAP using QUANTI-Blue™ reagent.
(§2) • 1. Compound was diluted in 3-fold gradients (10 concentration points in total) and added to the cell plate in duplicate. 1 μL of DMSO was added to each negative control well. • 2. The cells cultured in a T150 flask were taken out from a CO2 incubator, and the cell culture supernatant was discarded. The resulting cells were washed once with Dulbecco's phosphate buffered saline (DPBS). The flask was added with about 10 mL of the culture medium, and tapped to detach the cells. The resulting cell mass was gently pipetted evenly. The cells were counted and the cell suspension was adjusted to 500,000 cells/mL with the culture medium. Then 100 μL of diluted cells were added to each well (50,000 cells/well) of a 96-well plate containing the compound. • 3. The compound and cells were incubated in an incubator at 37° C., 5% CO2 for 24 h. • 4. Activity assay on the compound: 20 μL of the induced cell supernatant from each well was added to a cell culture plate containing 180 μL of QUANTI-Blue™ reagent, and after incubation at 37° C. for 1 h, the optical density absorbance at 650 nm (OD650) was assayed for each well using a multi-functional microplate reader. • 5. Activity assay on the cells: luciferase signal (RLU) was detected using a multi-functional microplate reader as per the process described in the instructions of ATPlite 1Step. • 6. Data analysis: compound activity: OD650 values were analyzed using GraphPad Prism software and the dose-response curves of the compounds were fitted to calculate EC50 values (half maximal effect concentration) for the compounds.

Human TLR7 = Human TLR7 (Homo sapiens (Human), UniProt Q9NYK1); assay: HEK-Blue hTLR7 SEAP reporter gene assay (agonistic activity); settings: HEK-Blue hTLR7 cells, 24 h incubation, SEAP by QUANTI-Blue OD650
Sequence of Human TLR7 (Q9NYK1 27-1049): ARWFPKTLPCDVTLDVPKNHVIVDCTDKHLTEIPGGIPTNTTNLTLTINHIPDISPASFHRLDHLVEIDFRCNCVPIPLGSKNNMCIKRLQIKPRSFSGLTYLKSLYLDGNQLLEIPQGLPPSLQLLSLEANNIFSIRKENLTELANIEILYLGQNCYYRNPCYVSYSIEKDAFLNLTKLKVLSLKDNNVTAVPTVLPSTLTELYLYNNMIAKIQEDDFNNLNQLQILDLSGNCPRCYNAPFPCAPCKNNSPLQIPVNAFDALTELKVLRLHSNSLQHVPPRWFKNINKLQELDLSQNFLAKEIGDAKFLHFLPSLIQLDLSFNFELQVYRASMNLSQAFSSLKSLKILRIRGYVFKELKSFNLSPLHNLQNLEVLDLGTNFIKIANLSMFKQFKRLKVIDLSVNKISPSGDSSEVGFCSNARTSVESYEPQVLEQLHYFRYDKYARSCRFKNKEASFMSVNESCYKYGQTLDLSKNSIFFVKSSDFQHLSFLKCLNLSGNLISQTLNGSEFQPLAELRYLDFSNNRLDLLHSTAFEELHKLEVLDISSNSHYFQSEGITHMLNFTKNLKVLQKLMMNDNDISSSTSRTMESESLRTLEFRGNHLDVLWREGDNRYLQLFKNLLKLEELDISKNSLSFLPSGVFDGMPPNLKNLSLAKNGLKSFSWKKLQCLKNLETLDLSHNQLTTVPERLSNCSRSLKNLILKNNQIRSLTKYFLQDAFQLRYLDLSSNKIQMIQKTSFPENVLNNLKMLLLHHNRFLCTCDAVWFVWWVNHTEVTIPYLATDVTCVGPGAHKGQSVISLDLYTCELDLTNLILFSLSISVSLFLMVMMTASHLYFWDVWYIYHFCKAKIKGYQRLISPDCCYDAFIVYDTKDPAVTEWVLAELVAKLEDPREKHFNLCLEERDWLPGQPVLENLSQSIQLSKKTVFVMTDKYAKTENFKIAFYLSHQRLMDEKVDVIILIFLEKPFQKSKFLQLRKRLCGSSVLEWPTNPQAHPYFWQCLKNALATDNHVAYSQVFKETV
Description: as §1, §2

[1] = test system: human peripheral blood mononuclear cells (hPBMCs); assay: Cytokine induction (IL-12p40, IFN-γ, TNF-α) in peripheral blood mononuclear cells, flow cytometric bead array; settings: PBMC, hPBMC, 24 h incubation, supernatant, CBA
Description: (§3) TLR8 is a receptor for the innate immune system to sense exogenous pathogens, and can recognize exogenous viral single-stranded RNA and cause the release of a series of cytokines such as TNF-α, IL-12, IFN-γ to elicit an antiviral immune response; TLR7 is another receptor for the innate immune system to sense exogenous pathogens and, when activated, produces primarily such antiviral cytokines as IFN-α. In this experiment, a potential compound of TLR8 agonist was used to stimulate human peripheral blood mononuclear cells (hPBMCs), and the levels of TNF-α, IL-12p40, IFN-γ and IFN-α above were measured to reflect the activation of the compound on TLR8 receptor and its selectivity for TLR8/TLR7.
• 1. Fresh blood of healthy volunteers was collected and anticoagulated with an EDTA-K2 anticoagulation tube (catalog No.: BD-8516542); • 2. hPBMC cells in the middle cloud-like layer were separated after Ficoll density gradient centrifugation, and washed twice with RPMI1640 (source: Gibco, catalog No.: 224400-089) containing 10% serum, and the culture medium was resuspended to 10 mL. After the cells were counted with Vi-cell cell counter, the concentration of cell suspension was adjusted to 2×10^6/mL; • 3. The compound was dissolved in DMSO to 100 mM, and diluted to 50 mM and 2 mM with DMSO, which were served as initial concentrations. Then the solutions were each diluted sequentially in a 3-fold gradient (sample at a previous concentration (5 μL)+DMSO (10 μL)) to obtain 8 gradients. The resulting solutions were respectively subjected to 500-fold dilution with the culture medium to prepare the working solutions of the compound; • 4. […] IL-12p40, TNF-α and IFN-γ in the supernatant were detected by flow cytometric bead array (CBA); IFN-α in the cell supernatant was detected by enzyme-linked immuno sorbent assay (ELISA). • 6. Data analysis: compound activity: EC50 values (half maximal effect concentration) were analyzed using a GraphPad Prism software and the dose-response curves of the compound were fitted to calculate EC50 values for the compound.

[2] = test system: human peripheral blood mononuclear cells (hPBMCs); assay: IFN-α induction in peripheral blood mononuclear cells, ELISA; settings: PBMC, hPBMC, 24 h incubation, supernatant, up to 50 μM
Description: as §3
• 1. […] After the cells were counted with Vi-cell cell counter, the concentration of cell suspension was adjusted to 2×10^6/mL; • 3. […] IL-12p40, TNF-α and IFN-γ in the supernatant were detected by flow cytometric bead array (CBA); IFN-α in the cell supernatant was detected by enzyme-linked immuno sorbent assay (ELISA). • 6. Data analysis: compound activity: EC50 values (half maximal effect concentration) were analyzed using a GraphPad Prism software and the dose-response curves of the compound were fitted to calculate EC50 values for the compound.

Sequence of Human TLR8 (Q9NR97 27-1041): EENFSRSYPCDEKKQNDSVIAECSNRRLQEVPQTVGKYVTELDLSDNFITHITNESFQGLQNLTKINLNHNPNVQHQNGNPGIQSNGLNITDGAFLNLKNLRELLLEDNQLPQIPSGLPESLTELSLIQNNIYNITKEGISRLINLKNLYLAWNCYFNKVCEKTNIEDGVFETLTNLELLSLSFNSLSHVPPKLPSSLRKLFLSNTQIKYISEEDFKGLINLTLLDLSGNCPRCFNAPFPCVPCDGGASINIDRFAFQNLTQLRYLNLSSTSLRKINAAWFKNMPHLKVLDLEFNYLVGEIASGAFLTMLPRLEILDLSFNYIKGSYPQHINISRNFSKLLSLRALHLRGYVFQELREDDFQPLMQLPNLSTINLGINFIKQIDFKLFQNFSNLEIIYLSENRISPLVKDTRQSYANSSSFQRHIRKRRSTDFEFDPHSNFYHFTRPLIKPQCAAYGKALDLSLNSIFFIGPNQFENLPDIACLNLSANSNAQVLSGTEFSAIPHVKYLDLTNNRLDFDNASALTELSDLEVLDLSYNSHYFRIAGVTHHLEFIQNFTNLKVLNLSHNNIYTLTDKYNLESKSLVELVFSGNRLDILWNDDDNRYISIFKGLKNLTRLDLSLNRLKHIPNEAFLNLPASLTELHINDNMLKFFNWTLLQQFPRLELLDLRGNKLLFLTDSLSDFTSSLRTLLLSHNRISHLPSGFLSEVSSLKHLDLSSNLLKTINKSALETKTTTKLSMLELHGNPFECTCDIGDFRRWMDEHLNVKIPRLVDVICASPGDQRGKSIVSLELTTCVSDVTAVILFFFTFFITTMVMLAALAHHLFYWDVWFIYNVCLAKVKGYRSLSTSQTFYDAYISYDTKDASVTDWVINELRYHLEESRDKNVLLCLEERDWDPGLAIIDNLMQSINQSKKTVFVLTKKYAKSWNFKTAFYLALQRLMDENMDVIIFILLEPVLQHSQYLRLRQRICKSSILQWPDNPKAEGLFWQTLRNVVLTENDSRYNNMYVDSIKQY

Row | EC50 (Human TLR8) [nM] | EC50 (Human TLR7) [nM] | EC50 ([1]; read-out: IFN-γ EC50) [nM] | EC50 ([1]; read-out: IL-12p40 EC50) [nM] | EC50 ([1]; read-out: TNF-α EC50) [nM] | EC50 [2] [nM] | SMILES
1 | 18 | > 15000 |  |  |  |  | CCCCC(C)(CNC(=O)[C@@H]1CCCCN1)Nc1nc(N)nc2cccnc12 (single isomer, unassigned) [Compound 6]
2 | 6 | > 15000 |  |  |  |  | CCCCC(C)(CNC(=O)[C@@H]1CCCN1)Nc1nc(N)nc2cnccc12 (stereo partly drawn) [Compound 2]
3 | 32 | > 15000 |  |  |  |  | CCCCC(C)(CNC(=O)[C@@H]1CCCN1)Nc1nc(N)nc2ccccc12 (stereo partly drawn) [Compound 3]

Further lines, the compound ahead of its results:

Row | SMILES | EC50 (Human TLR8) [nM] | EC50 (Human TLR7) [nM] | EC50 ([1]; read-out: IFN-γ EC50) [nM] | EC50 ([1]; read-out: IL-12p40 EC50) [nM] | EC50 ([1]; read-out: TNF-α EC50) [nM] | EC50 [2] [nM]
4 | CCCCC(C)(CNC(=O)[C@@H]1CCCN1)Nc1nc(N)nc2cccnc12 (single isomer, unassigned) [Compound 1] | 2 | > 15000 | 15 | 6 | 30 | > 50000
5 | CCCCC(C)(CNC(=O)[C@@H]1COCCN1)Nc1nc(N)nc2cccnc12 (single isomer, unassigned) [Compound 4] | 14 | > 15000 |  |  |  | 
6 | CCCCC(C)(CNC(=O)[C@@H]1CC(F)(F)CN1)Nc1nc(N)nc2cccnc12 (single isomer, unassigned) [Compound 5] | 106 | > 15000 |  |  |  | 
7 | CCCCC(C)(CNC(=O)[C@@H]1CCN1)Nc1nc(N)nc2cccnc12 (single isomer, unassigned) [Compound 7] | 15 | > 15000 |  |  |  | 
